Inhibition and Activity data for 7 molecules are collected here from ChEMBL document CHEMBL3994660, “Novel 5-arylthio-5H-chromenopyridines as a new class of anti-fibrotic agents” (Bioorg Med Chem Lett, 2017).

As a reminder, the inhibition is the change of the read-out against control, counted positive when it falls.

Structures are written as SMILES. Calls of active or inactive are those of the source. The rule behind the calls is not given here.

In data set [1] the test system is Hepatitis C virus. The experiment in a line: Inhibition of HCV NS3 protein expression infected in human Huh7.5 cells at 5 uM after 6 hrs by Western blot method relative to control. Type of data set: functional, Hepacivirus hominis. Particulars: Huh7.5, 6 h.
Data set [2] is described as follows: Cytotoxicity against human LX2 cells assessed as reduction in cell viability at 5 to 25 uM after 6 hrs by CellTiter-Glo luminescent assay. The class given is cell-based. Particulars: lx2, 6 h. Background: Cellular ATP, detected with luciferase, serves as a proxy for viable cell number.
The subject of data set [3] is Hepatitis C virus. The experiment in a line: Inhibition of HCV NS3 protein expression infected in human Huh7.5 cells at 25 uM after 6 hrs by Western blot method relative to control. The following applies: Huh7.5, 6 h. Type of data set: functional, Hepacivirus hominis. For orientation: A western blot detects proteins with antibodies after separation by electrophoresis.

A short description of data set [4]: Cytotoxicity against human Huh7.5 cells infected with HCV assessed as reduction in cell viability at 5 to 25 uM after 6 hrs by CellTiter-Glo luminescent assay. Type of data set: cell-based. The following applies: huh7.5, 6 h.
Data set [5] concerns Hepatitis C virus. The data set can be described thus: Inhibition of HCV NS3 protein expression infected in human Huh7.5 cells at 10 uM after 6 hrs by Western blot method relative to control. The class given is functional, Hepacivirus hominis. The following applies: Huh7.5, 6 h.
Data set [6] has as its system Hepatitis C virus. The data set can be described thus: Inhibition of HCV NS5A protein expression infected in human Huh7.5 cells at 5 to 25 uM after 6 hrs by Western blot method. The class given is functional, cell-based. Particulars: Hepacivirus hominis.
Data set [7] relates to LX2. The experiment in a line: Antifibrotic activity against human LX2 cells assessed as inhibition of spindle shaped cells by measuring round shaped cells at 10 uM after 6 hrs by light microscopic method. Type of data set: functional, cell-based.
The test system of data set [8] is LX2. The experiment in a line: Antifibrotic activity against human LX2 cells assessed as inhibition of spindle shaped cells by measuring round shaped cells at 25 uM after 6 hrs by light microscopic method. Type of data set: functional, cell-based.

`CCN(CC)c1ccc2c(c1)Oc1nc(N)c(C#N)c(N)c1C2Sc1ccc(Cl)cc1` (stereo unspecified) registered an inhibition at 5 µM in data set [1] of 42%. The Activity result in data set [2] is listed as “Toxic”; in data set [4], “Non-Toxic”. Also, testing at 25 µM in data set [3] gave an inhibition of 47%. The molecule also registered an inhibition at 10 µM in data set [5] of 34%. In addition, the inhibition result in data set [6] is “inactive”.
As to `CCN(CC)c1ccc2c(c1)Oc1nc(N)c(C#N)c(N)c1C2Sc1ccc(C)cc1` (stereo unspecified), in data set [4], the Activity entry was “Non-Toxic”. Also, the inhibition result in data set [6] was “inactive”.
Consider `CCN(CC)c1ccc2c(c1)Oc1nc(N)c(C#N)c(N)c1C2Sc1ccc(F)cc1` (stereo unspecified), for which, in data set [1], testing at 5 µM gave an inhibition of 33%. For the same molecule, the Activity entry in data set [2] and in data set [4] was “Non-Toxic” in each case. The molecule further came in with an inhibition at 25 µM in data set [3] of 0%. For the same molecule, in data set [7], the inhibition entry was “Active”. Besides, 10 µM produced 3% inhibition in data set [5]. Besides, the inhibition result in data set [6] was “inactive”.
Turning to `CCN(CC)c1ccc2c(c1)Oc1nc(N)c(C#N)c(N)c1C2Sc1ccc(Br)cc1` (stereo unspecified), the inhibition at 5 µM in data set [1] was 59%. Moreover, the Activity result in data set [2] and in data set [4] was “Non-Toxic” throughout. Moreover, 25 µM produced 32% inhibition in data set [3]. Further, in data set [7], the inhibition result is “Active”. Besides, the inhibition at 10 µM in data set [5] came out at 49%. The inhibition result in data set [6] was “inactive”.
In data set [1], `CCN(CC)c1ccc2c(c1)Oc1nc(N)c(C#N)c(N)c1C2Sc1ccc(OC)cc1` (stereo unspecified) yielded an inhibition at 5 µM of 47%. The Activity result was “Toxic” in data set [2] and “Non-Toxic” in data set [4]. In addition, the inhibition at 25 µM in data set [3] amounted to 28%. In data set [5], this molecule showed an inhibition at 10 µM of 27%. In addition, the inhibition entry in data set [6] is “inactive”.
Take `CCc1ccc(SC2c3ccc(N(CC)CC)cc3Oc3nc(N)c(C#N)c(N)c32)cc1` (stereo unspecified): in data set [1], at 5 µM the inhibition was 47%. In addition, the Activity entry in data set [2] and in data set [4] was “Non-Toxic” throughout. The inhibition at 25 µM in data set [3] worked out at 19%. Moreover, the inhibition entry in data set [8] is “Active”. Moreover, in data set [5], at 10 µM the inhibition was 0%. Also, in data set [6], the inhibition result was “inactive”.
Take `CCN(CC)c1ccc2c(c1)Oc1nc(N)c(C#N)c(N)c1C2Sc1ccc(SC)cc1` (stereo unspecified): the inhibition at 5 µM in data set [1] worked out at 29%. In data set [3], this molecule came in with an inhibition at 25 µM of 45%. Besides, the Activity entry in data set [4] is “Non-Toxic”. For the same molecule, in data set [8], the inhibition result is “Active”. In data set [5], this molecule gave an inhibition at 10 µM of 35%. Moreover, the inhibition entry in data set [6] is “inactive”.
